{"source": "paper PMC12700558", "about": "“Aggregation shifts amyloid-β peptides from synaptogenic to synaptotoxic” (The Journal of Clinical Investigation, 2025)", "key": {"[1]": {"assay": "Native PAGE and immunoblotting of the aggregation state of Aβ peptides", "format": "physicochemical", "conditions": "stock solutions incubated at 37°C for 60 or 90 minutes, native PAGE, immunoblot 4G8 / Abcam 126892", "method": "To assess the aggregation state of Aβ peptides in stock solutions, we performed native polyacrylamide gel electrophoresis (PAGE) followed by immunoblotting. Stock solutions of Aβ peptides were incubated at 37°C for 1.5 and/or 1 hours to promote aggregate formation. After incubation, samples were diluted 1:2 with native PAGE sample buffer to maintain nondenaturing conditions. The samples were loaded onto 4%–15% gradient polyacrylamide Criterion gels (Bio-Rad), which allow for the separation of proteins across a wide range of molecular weights under native conditions. Electrophoresis was conducted using Tris-Glycine buffer at 4°C for 3 hours to preserve the native structure of the peptide aggregates during separation. A constant voltage appropriate for native PAGE was applied throughout the run ([49]). Following electrophoresis, proteins were transferred onto Nitrocellulose (0.45 μm) membranes using a semidry transfer apparatus optimized for proteins of mixed molecular weights. The transfer was performed according to the manufacturer’s instructions, ensuring efficient transfer of both low and high molecular weight species. Membranes were blocked with 5% BSA (GeminiBio) in Tris-buffered saline with 0.1% Tween-20 (TBST) at room temperature for 1 hour to prevent nonspecific antibody binding. […] Blots were imaged using the Odyssey Infrared Imager CLX and analyzed using Image Study 5.2.5. […]"}, "[2]": {"system": "human neurons cocultured with mouse glia (entire glia/neuron coculture)", "method": "The MTT assay employs yellow tetrazolium dye that is reduced to a purple formazan crystal by viable cells with active metabolism ([21]). Because it measures metabolic activity in all cells, this assay serves as a broad cytotoxicity read out for the entire glia/neuron coculture system. The amount of formazan produced is then measured because it is directly proportional to the number of viable cells ([21]) (Figure 1B and Supplemental Figure 1A). The nuclear localization TdTomato assay, conversely, enables monitoring of cellular stress by tracking the localization of fluorescent TdTomato fused to a nuclear localization signal. Under healthy conditions, the nuclear localization signal directs the NLS-TdTomato to the nucleus. When toxicity in a cell causes a reduction in ATP levels, NLS-TdTomato leaks out of the nucleus into the cytoplasm, which we scored as an index of toxicity (Figure 1, C and D, and Supplemental Figure 1, B–D). Because the reporter is expressed only in neurons, this assay specifically assesses neurotoxicity within the coculture. We developed this assay because it can be performed on live cells and reflects decreases in ATP levels in these cells. The NLS-TdTomato assay was validated by treating cultures with 5% DMSO and 200 μM hydrogen peroxide, 2 well-established neurotoxins. […]"}, "[3]": {"system": "human neurons cocultured with mouse glia", "conditions": "chronic exposure DIV6-DIV45, neurotoxic doses", "from_the_text": "The Incucyte Cytotox Green assay, finally, monitors membrane integrity using a DNA dye that gains access to nuclei only when the plasma membrane is compromised (Supplemental Figure 1, F and G).\nTo obtain a live cell read out of neuronal death, we monitored loss of plasma-membrane integrity with Incucyte Cytotox Green reagent (Sartorius), a cell-impermeant DNA dye that fluoresces upon binding to nuclear DNA once the membrane is breached ([48]). A 250× stock supplied by the manufacturer was thawed on ice and diluted into prewarmed culture medium to a final working concentration of 250 nM immediately before use. For each assay plate, half the medium was removed and replaced with dye-containing medium so that the final dye concentration and vehicle composition were identical across all conditions. For validation, DIV30 cocultures were challenged for 4 hours with 200 μM H2O2; fluorescence images were acquired immediately thereafter. […] Dye was present for 2 hours before imaging to allow equilibrium without inducing additional stress. Ten nonoverlapping fields per well were captured with the 20× objective using green fluorescence channels. Exposure settings were kept constant within an experiment. Images were processed with ImageJ. A top-hat background subtraction was applied to the green channel, and a fluorescence threshold was kept constant across batches. […]"}, "[4]": {"system": "human neurons", "assay": "GCaMP6m live imaging of Ca2+ signals (network activity)", "format": "cell-based", "design": "Ca2+ imaging: Frequency / Ca2+ imaging: Amplitude: unit not given here", "conditions": "for Ca2+ imaging: Amplitude / Ca2+ imaging: Frequency / Ca2+ imaging: Synchronicity: single biological replicates (batches), n=3, listed as Ab42 arctic mutation", "method": "To evaluate the effects of Aβ peptide treatments on neuronal network activity, live calcium imaging was performed using human neurons expressing the genetically encoded calcium indicator GCaMP. At DIV6, human neurons were infected with a lentiviral vector, prepared as described previously at Virus generation, carrying a plasmid encoding GCaMP6m under the control of the human Synapsin-1 promoter, ensuring neuron-specific expression. […] At DIV45, when the neurons had reached full maturation, synaptic activity was recorded. For potentiating synaptic transmission of human neurons, the cells were imaged with ambient 4 mM CaCl2 and 8 mM KCl equilibrated in a HEPES-based buffer (140 mM NaCl, 10 mM HEPES, 20 mM glucose, 1 mM MgCl2). […] Neuronal activity was captured in 2-minute videos at a frame rate of 10 frames/second, allowing for the detection of spontaneous calcium transients indicative of neuronal firing. Following acquisition, the videos were analyzed using MATLAB software (MathWorks). Regions of interest (ROIs) corresponding to 10–20 neurons were selected, and fluorescence intensity changes over time were extracted for each ROI. Analyses focused on quantifying the frequency, amplitude, and synchronicity of calcium signal peaks across the neuronal network. Signal peaks were identified using a peak detection algorithm, and synchronicity was assessed through cross-correlation analyses between neuronal pairs or by calculating network synchrony measures ([26])."}, "[5]": {"conditions": "concentrations that proved synaptotoxic, DIV45"}}, "note": "“And” between values parts separate entries of the source, which are not always exact repeats. Equal entries are not always repeated. “Also recorded” adds a separate entry of the source."}
{"substance": "-.DAEFRHDSGYEVHHQKLVFFAGDVGSNKGAIIGLMVGGVVI.A [Aβ42^arctic]", "values": [{"measurement": "Aggregation state in native gel analyses (in words)", "setting": "[1]", "result": "completely aggregated even at lower concentrations; also recorded: quantitatively aggregated"}, {"measurement": "Concentration at which neurotoxic, MTT assay", "setting": "[2]", "result": "greater than or equal to 0.025 μM"}, {"measurement": "Incucyte Cytotox Green assay, labeled nuclei (in words)", "setting": "[3]", "result": "modest but consistent rise in labeled nuclei"}, {"measurement": "Neuronal network activity (in words)", "setting": "[4]; any concentration, chronic treatment, DIV45", "result": "did not enhance neuronal network activity at any concentration"}, {"measurement": "Spike frequency and amplitude (in words)", "setting": "[4]; [5]", "result": "pronounced fall"}, {"measurement": "Synchrony (in words)", "setting": "[4]; [5]", "result": "near-complete breakdown"}, {"measurement": "Ca2+ imaging: Amplitude", "setting": "[4]; peptide 0.1 uM", "result": "0.4784 and 0.3202 and 0.4832"}, {"measurement": "Ca2+ imaging: Frequency", "setting": "[4]; peptide 0.1 uM", "result": "10.7529 and 5.405 and 6.996"}, {"measurement": "Ca2+ imaging: Synchronicity", "setting": "[4]; peptide 0.1 uM", "result": "0.2834 and 0.2877 and 0.3503"}, {"measurement": "Ca2+ imaging: Amplitude", "setting": "[4]; peptide 0.2 uM", "result": "0.3279 and 0.286 and 0.3267"}, {"measurement": "Ca2+ imaging: Frequency", "setting": "[4]; peptide 0.2 uM", "result": "0.6879 and 0.8917 and 1.347"}, {"measurement": "Ca2+ imaging: Synchronicity", "setting": "[4]; peptide 0.2 uM", "result": "0.2149 and 0.1382 and 0.2492"}]}
